This is an account of results in patent publication US20260337153A1, “IONIZABLE AMINE LIPIDS” (Intellia Therapeutics, Inc., priority 2023, published 2026).

The term pKa denotes the pH at which an ionisable group is half protonated.

Type in all cases: physicochemical
Series [1] in a line: LNP average particle size and polydispersity by dynamic light scattering. The settings on record: sgRNA:mRNA 1:2. The method, boiled down: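 Z-average (intensity-based) and number-mean diameters plus PDI measured by DLS on LNP samples diluted in PBS. LNPs carried sgRNA and Cas9 mRNA at 1:2 w/w, with lipids at 50% ionizable lipid, 38% cholesterol, 9% DSPC and 3% PEG lipid (PEG2K-DMG, C13 Ether or C14 Ether).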

Series [2] in a line: LNP encapsulation efficiency of RNA (Ribogreen fluorescence assay). The settings on record: sgRNA:mRNA 1:2. The essentials: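 RiboGreen fluorescence (ex 488/em 525 nm) measured total RNA in 1×TE with 0.2% Triton X-100 and free RNA in 1×TE alone, against standard curves of the starting RNA; encapsulation = (total − free)/total. Total RNA alternatively quantified after Triton disruption by RP-IP HPLC, UV 260 nm.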

Series [3] can be described thus: pKa of unformulated amine lipid by TNS fluorescence. The following applies: sodium phosphate buffer; Table 2; unformulated amine lipid, TNS; read-out: Lipid pKa. The method, boiled down:
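Unformulated amine lipid was diluted from ethanol stock to approx. 100 μM in 0.1 M sodium phosphate buffers spanning pH 4.5–9.0 with TNS. Fluorescence read at ex 321/em 448 nm; normalized data fitted sigmoidally to give pKa.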

Setting [4] is: Table 3, Experiments 1-13, LNP 50% ionizable lipid, 38% cholesterol, 9% DSPC, 3% PEG2K-DMG.
Setting [5] is: LNP with 50% ionizable lipid, 38% cholesterol, 9% DSPC, 3% C13 Ether (LNP #1, Compound 53: 3% PEG2K-DMG instead).
[6] abbreviates: Table 3, Experiment 14, LNP with 3% C13 Ether.

Take `CCCCC/C=C\C/C=C\CCCCCCCC(=O)OCC(CCCCCCCCC(=O)OC(CCCCCCCC)CCCCCCCCC)COC(=O)CCC(CCCC)OC(=O)NCCN(C)CC` (stereo not shown) [Compound 26, 9-butyl-3-methyl-15-(9-(octadecan-9-yloxy)-9-oxononyl)-7,12-dioxo-8,13-dioxa-3,6-diazahexadecan-16-yl (9Z,12Z)-octadeca-9,12-dienoate]: in series [1] (setting [4]), the Number mean was 76 nm, the PDI was determined as 0.01 and the Z-avg is listed as 81 nm. The “% E (encapsulation efficiency)” value in series [2] (setting [4]) was 98%. In addition, the pKa in series [3] was 6.36.
Turning to `CCCCC/C=C\C/C=C\CCCCCCCC(=O)OCC(CCCCCCCCC(=O)OC(CCCCCCCC)CCCCCCCCC)COC(=O)CCC(CCCC)OC(=O)NCCN1CCCC1` (stereo not shown) [Compound 27, 11-(octadecan-9-yloxy)-11-oxo-2-(((4-(((2-(pyrrolidin-1-yl)ethyl)carbamoyl)oxy)octanoyl)oxy)methyl)undecyl (9Z,12Z)-octadeca-9,12-dienoate], in series [1] (setting [4]), the Number mean is given as 77 nm, the PDI was 0.01 and the Z-avg is recorded as 82 nm. For the same compound, in series [2] (setting [4]), the “% E (encapsulation efficiency)” value is 98%. Moreover, the pKa in series [3] came out at 6.75.
As to `CCCCCCCCC(CCCCCCCC)OC(=O)CCCC(=O)OCC(COC(=O)CCCC(=O)OC(CCCCCCCC)CCCCCCCC)COC(=O)NCCN1CCCCC1` [Compound 28, di(heptadecan-9-yl) O,O′-(2-((((2-(piperidin-1-yl)ethyl)carbamoyl)oxy)methyl)propane-1,3-diyl) diglutarate], in series [1] (setting [4]), the Number mean is recorded as 60 nm, the PDI amounted to 0.022 and the Z-avg worked out at 65 nm. Besides, the “% E (encapsulation efficiency)” value in series [2] (setting [4]) was found to be 99%. Moreover, the pKa in series [3] was 6.2.
Consider `CCCCCCCCC(CCCCCCCC)OC(=O)CCCC(=O)OCC(COC(=O)CCCC(=O)OC(CCCCCCCC)CCCCCCCC)COC(=O)NCCN1CCCC1` [Compound 29, di(heptadecan-9-yl) O,O′-(2-((((2-(pyrrolidin-1-yl)ethyl)carbamoyl)oxy)methyl)propane-1,3-diyl) diglutarate], for which, in series [1] (setting [4]), the Number mean is listed as 67 nm, the PDI is listed as 0.023 and the Z-avg stood at 74 nm. The “% E (encapsulation efficiency)” value in series [2] (setting [4]) is 100%. For the same compound, the pKa in series [3] is 7.1.
`CCCCCCCCC(CCCCCCCC)OC(=O)CCCC(=O)OCC(COC(=O)CCCC(=O)OC(CCCCCCCC)CCCCCCCC)COC(=O)OCCCN(C)CC` [Compound 30, O,O′-(2-((((3-(ethyl(methyl)amino)propoxy)carbonyl)oxy)methyl)propane-1,3-diyl) di(heptadecan-9-yl) diglutarate]: in series [1] (setting [4]), the Number mean is reported as 64 nm, the PDI was determined as 0.02 and the Z-avg stood at 71 nm. Further, the “% E (encapsulation efficiency)” value in series [2] (setting [4]) is given as 99%. Further, in series [3], the pKa was found to be 6.4.
In the case of `CCCCCCCCC(CCCCCCCC)OC(=O)CCCC(=O)OCC(COC(=O)CCCC(=O)OC(CCCCCCCC)CCCCCCCC)COC(=O)OCCCN(C)C` [Compound 31, O,O′-(2-((((3-(dimethylamino)propoxy)carbonyl)oxy)methyl)propane-1,3-diyl) di(heptadecan-9-yl) diglutarate], in series [1] (setting [4]), the Number mean is given as 59 nm, the PDI is 0.003 and the Z-avg was 64 nm. In addition, the “% E (encapsulation efficiency)” value in series [2] (setting [4]) was 100%. Besides, the pKa in series [3] is 6.8.
As for `CCCCCCCCC(CCCCCCCC)OC(=O)CCCC(=O)OCC(COC(=O)CCCC(=O)OC(CCCCCCCC)CCCCCCCC)COC(=O)OCCCN1CCCCC1` [Compound 32, di(heptadecan-9-yl) O,O′-(2-((((3-(piperidin-1-yl)propoxy)carbonyl)oxy)methyl)propane-1,3-diyl) diglutarate], in series [1] (setting [4]), the Number mean turned out to be 59 nm, the PDI turned out to be 0.008 and the Z-avg was found to be 63 nm. In series [2] (setting [4]), the “% E (encapsulation efficiency)” value was 99%. In series [3], the pKa amounted to 5.7.
For `CCCCCCCCC(CCCCCCCC)OC(=O)CCCC(=O)OCC(COC(=O)CCCC(=O)OC(CCCCCCCC)CCCCCCCC)COC(=O)OCCCN1CCCC1` [Compound 33, di(heptadecan-9-yl) O,O′-(2-((((3-(pyrrolidin-1-yl)propoxy)carbonyl)oxy)methyl)propane-1,3-diyl) diglutarate], in series [1] (setting [5]), the “Number mean (average particle size)” value is recorded as 60 nm, the “PDI (polydispersity index)” value is 0.01 and the “Z-avg (average particle size)” value is 73 nm. Moreover, in series [1] (setting [4]), the Number mean is recorded as 66 nm, the PDI is given as 0.023 and the Z-avg is 71 nm. Further, the “% E (encapsulation efficiency)” value in series [2] (setting [5]) stood at 99%. The “% E (encapsulation efficiency)” value in series [2] (setting [4]) amounted to 100%. Further, the pKa in series [3] stood at 6.5.
For the compound `CCCCCCCCC(CCCCCCCC)OC(=O)CCCC(=O)OCC(COC(=O)CCCC(=O)OC(CCCCCCCC)CCCCCCCC)COC(=O)CCCN(C)C` [Compound 34, O,O′-(2-(((4-(dimethylamino)butanoyl)oxy)methyl)propane-1,3-diyl) di(heptadecan-9-yl) diglutarate], in series [1] (setting [6]), the Number mean was 61 nm, the PDI was 0.032 and the Z-avg amounted to 69 nm. The “% E (encapsulation efficiency)” value in series [2] (setting [6]) is on record as 98%. The pKa in series [3] is 6.33.
The like results for `CCCCCCCCC(CCCCCCCC)OC(=O)CCCC(=O)OCC(COC(=O)CCCC(=O)OC(CCCCCCCC)CCCCCCCC)OC(=O)NCCN(CC)CC` [Compound 35, O,O′-(2-(((2-(diethylamino)ethyl)carbamoyl)oxy)propane-1,3-diyl) di(heptadecan-9-yl) diglutarate] were, in that order, 67 nm, 0.019, 76 nm, 99% and 6.83.
With `CCCCCCC(CCCCCC)OC(=O)CCCC(=O)OCC(COC(=O)CCCC(=O)OC(CCCCCC)CCCCCC)COC(=O)NCCN(CC)CC` [Compound 37, O,O′-(2-((((2-(diethylamino)ethyl)carbamoyl)oxy)methyl)propane-1,3-diyl) di(tridecan-7-yl) diglutarate], in series [1] (setting [4]), the Number mean turned out to be 71 nm, the PDI is 0.014 and the Z-avg was 78 nm. The “% E (encapsulation efficiency)” value in series [2] (setting [4]) was determined as 99%. The pKa in series [3] was found to be 6.66.
Take `CCCCCCCCC(CCCCCCCC)C(=O)OCC(COC(=O)NCCN(CC)CC)COC(=O)C(CCCCCCCC)CCCCCCCC` [Compound 40, 2-((((2-(diethylamino)ethyl)carbamoyl)oxy)methyl)propane-1,3-diyl bis(2-octyldecanoate)]: in series [1] (setting [6]), the Number mean is recorded as 48 nm, the PDI turned out to be 0.062 and the Z-avg stood at 57 nm. In addition, the “% E (encapsulation efficiency)” value in series [2] (setting [6]) came out at 92%. Also, the pKa in series [3] came to 5.97.
`CCCCC/C=C\C/C=C\CCCCCCCC(=O)OCC(COC(=O)CCCC(=O)OC(CCCCCCCC)CCCCCCCC)COC(=O)N(C)CCN(CC)CC` (stereo not shown) [Compound 49, 3-(((2-(diethylamino)ethyl)(methyl)carbamoyl)oxy)-2-((((9Z,12Z)-octadeca-9,12-dienoyl)oxy)methyl)propyl heptadecan-9-yl Glutarate]: in series [1] (setting [4]), the Number mean was found to be 87 nm, the PDI was 0.01 and the Z-avg stood at 91 nm. Besides, the “% E (encapsulation efficiency)” value in series [2] (setting [4]) was 97%. Besides, the pKa in series [3] amounted to 6.38.
For `CCCCC/C=C\C/C=C\CCCCCCCC(=O)OCC(COC(=O)CCCC(=O)OC(CCCCCCCC)CCCCCCCC)COC(=O)NCCN1CCCCCC1` (stereo not shown) [Compound 50, 3-(((2-(azepan-1-yl)ethyl)carbamoyl)oxy)-2-((((9Z,12Z)-octadeca-9,12-dienoyl)oxy)methyl)propyl heptadecan-9-yl Glutarate], in that order: 66 nm, 0.02, 74 nm, 98% and 6.6.
For `CCCCCCCCC(CCCCCCCC)OC(=O)CCCCCC(=O)OCC(CCCCCCCCC(=O)OCC(CCCC)CCCCCC)COC(=O)NCCN(CC)CC` (stereo not shown) [Compound 51, 1-(11-((2-butyloctyl)oxy)-2-((((2-(diethylamino)ethyl)carbamoyl)oxy)methyl)-11-oxoundecyl) 7-(heptadecan-9-yl) heptanedioate], in that order: 81 nm, 0.03, 90 nm, 99% and 6.39.
